# Reference: US20240408175A1, “BMP9 OR AN AGONIST THEREOF AND ITS USES RELATED TO REDUCING METASTASIS OF CANCER” (THE UAB RESEARCH FOUNDATION, priority 2021, published 2024)
# Residues, ends and D or L forms follow the SMILES beside them. *: point of attachment. Cbz = O=C(OCc1ccccc1)*
# B1: BMP4: recombinant human BMP4, BMP ligand (protein, UniProt P12644 293-408, looked up)
# Bone morphogenetic protein 4: SPKHHSQRARKKNKNCRRHSLYVDFSDVGWNDWIVAPPGYQAFYCHGDCPFPLADHLNSTNHAIVQTLVNSVNSSIPKACCVPTELSAISMLYLDEYDKVVLKNYQEMVVEGCGCR
# B2: BMP10: recombinant human BMP10, highest sequence homology to BMP9 (protein, UniProt O95393 317-424, looked up)
# Bone morphogenetic protein 10: NAKGNYCKRTPLYIDFKEIGWDSWIIAPPGYEAYECRGVCNYPLAEHLTPTKHAIIQALVHLKNSQKASKACCVPTKLEPISILYLDKGVVTYKFKYEGMAVSECGCR
# What was measured:
# [1] = tested on: SOX2; experiment: SOX2 expression by Western blot / qRT-PCR in cancer cells; format: cell-based, human; settings: for recovery in SOX2 repression by BMP2: PA1, 1 h pretreatment (5 μM DM, 3 μM ML347); for recovery in SOX2 repression by BMP2 / effect on SOX2 repression by BMP2: then BMP2 24 h; for effect on SOX2 repression by BMP9: 1 h pretreatment (5 μM SB431542, 3 μM ML347, 0.8 μM LDN193189), then BMP9 24 hours; for effect on SOX2 repression by BMP2: PA1, 1 h pretreatment (5 μM SB431542, 0.8 μM LDN193189); for SOX2 protein and mRNA expression: attached and anchorage-independent conditions; for SOX2 protein and RNA levels: 10 nM, 24 hours, PA1 (and OVCAR3) cells
# Protocol: Lysate and RNA preparation: 100,000-300,000 cells were seeded in a poly-HEMA coated 6-well plate for indicated times in full serum unless indicated otherwise. Cells were collected by centrifugation and lysed with trizol for RNA extraction or direct 2× lysis buffer for protein lysates.
# Xenograft data were analyzed using parametric statistics as described in the legends. Survival curves were analyzed with log-rank statistics. In vitro experiments were analyzed using parametric statistics (ANOVA global test with Dunnett's/Sidak multiple comparison test as post-hoc tests as applicable and described in legend) and presented as the mean±SEM. All real time PCR's are relative semi quantitative RT-PCR's (hereby referred to as qRT-PCR) and are a combined quantitation of a minimum of 3 independent biological trials assayed in triplicate with biological replicates represented as individual scatter dots in the graphs or as indicated in legends. In all cases, statistical significance was set at a threshold of p<0.05. All statistical analyses were conducted with GraphPad Prism Software Ver. 9.0 and specific statistical test information described in figure legends.
# [2] = tested on: SOX2 promoter methylation; experiment: Methylation-specific qPCR of SOX2 promoter; format: cell-based, human; settings: for SOX2 promoter methylation, inhibitor alone: 5 μM
# Protocol: Genomic DNA was extracted, and bisulfite conversion was performed on 500 ng of gDNA using the MethylAmp DNA modification kit according to manufacturer's instructions. Relative quantitative RT-PCR (qPCR) was performed with methylation-specific and unmethylation-specific primers (see Table 3).
# [3] = tested on: Phosphorylated SMAD1 (pSMAD1); experiment: SMAD1 phosphorylation (Western blot); format: cell-based, human
# [4] = tested on: SOX2 promoter; experiment: Chromatin immunoprecipitation (ChIP) at SOX2 promoter regions; format: cell-based, human; settings: for SMAD3 occupancy at p1, p3, p4, p5, p6 (ChIP): 1 h treatment
# Protocol: ChIP was carried out using a modified version of a previously described protocol (Medeiros et al., 2009). Cells were grown to 80% confluency in 150 mm culture dishes. Cells were fixed at room temperature in 1% Paraformaldehyde solution (dilute 8% PFA in serum free media to get 1%) and rocked for 10 minutes. 10×Glycine was added to the plate and allowed to sit for 5 minutes at room temperature. Cells were scraped down and cell suspension were transferred to a cold centrifuge tube for centrifugation at 720 RCF at 4° C. for 10 minutes. Cells were rinsed with 1X Phosphate buffer saline and centrifugation repeated. Cell pellet was next resuspended in lysis buffers described in (Medeiros et al., 2009) to obtain nuclei pellet. This was followed by chromatin sonication, using QSonica sonicator (model CL-188) for four cycles (30% amplitude for 15 secs ON and 30 secs OFF) to obtain DNA fragments with a length from 150 to 300 bp. 1/10th of the supernatant was stored as input control. ChIP was performed using Protein A magnetic beads (Dynabeads, Invitrogen #10001D) to couple […] ChIP-grade antibodies for SMAD1, SMAD3, H3K27me3, H3K4me3, or rabbit IgG antibody overnight at 4 °C. DNA was purified using the PureLink Quick PCR Purification kit (Thermo Fisher Cat #: K310001) and enrichment of DNA fragments analyzed via relative quantitative RT-PCR (qPCR) using ChIP primers (see Table 2) to specific locations. Negative and positive control regions were included in all analysis.
# [5] = tested on: HEYT30 cells; experiment: Paclitaxel cell viability with BMP9 in HEYT30 (FIG. 10, 13A); format: cell-based; settings: Homo sapiens, read-out: paclitaxel IC50 concentration
# [6] = tested on: HEY-T30 cells; experiment: Flow cytometry, Annexin V / PI apoptosis; format: cell-based, human; settings: 3D, 48 hours; 10 nM BMP9, 300 nM paclitaxel or combination
# Protocol: 700,000 cells were seeded in 60 mm poly-hema coated culture dishes, followed by incubation with 300 nM paclitaxel and 10 nM BMP9 alone or in simultaneous combination for 48 hours. Cells were centrifuged and resuspended in 1×binding buffer, followed by incubation with Annexin V and PI according to the manufacturer's procedure manual. The stained cell suspension was added to FACS tubes containing 200 μl 1×binding buffer and measured by BD LSRFortessa flow cytometer. The data were analyzed using BD FACSDiva (Becton Dickinson, NJ, USA) software. Annexin V-positive and PI-negative cells were considered to be in the early apoptotic phase, Annexin V-negative and PI-positive cells were considered to be in the necrosis phase, cells having positive staining for both Annexin-V and PI were considered to undergo late apoptosis and cells negative for Annexin V and PI were considered to be live cells.
# [7] = tested on: HEYT30 cells; experiment: CellTiter Glo 3D cell viability assay, paclitaxel with BMP9; settings: read-out: paclitaxel IC50 concentration, 3D conditions
# [8] = tested on: OC cells (PA1, OVCA420, and OVCAR3); experiment: Live-dead analysis of anchorage-independent spheroids, TGF-β1/activin A; format: cell-based, human; settings: 1 nM TGFβ1, 10 nM activin, 24 hrs
# Protocol: (§1) For Live/Dead analysis under anchorage independence, 1,000 cells were seeded in 96-well hydrogel-coated ultra-low attachment (ULA) plates (Corning #4515) for times indicated. Growth factor treatment was done under low serum 2.5% FBS condition (Cells were plated in 10% FBS to allow spheroid formation before beginning treatment). Cells were then stained with 2 μM Calcein-AM and 4 μM Ethidium-homodimer for 30 min before imaging. z-stacked images were obtained using the Zeiss LSM700 Confocal microscope (Microscopy and Flow Cytometry Core, University of South Carolina) and NIKON A1 Confocal microscope (UAB High Resolution Imaging Facility). Fluorescent quantification was performed using ImageJ Fiji software to calculate the Corrected Total Cell Fluorescent (CTCF)=Integrated Density−(Area of selected cell×Mean fluorescence of background readings) per spheroid.
# [9] = tested on: 1-kb SOX2 promoter reporter; experiment: pGL3-SOX2 promoter-reporter luciferase assay in HEK293 cells; format: cell-based, human
# Protocol: HEK293 cells were transfected with the pGL3-SOX2 promoter-luciferase reporter plasmid construct and SV40-renilla for 24h. […] According to the manufacturer's instruction, cells were collected and lysed in […] passive lysis buffer. To measure luciferase activity, […] of lysate was added to […] of dual Luciferase Assay Reagent, and luminescence was quantitated using a luminometer (Biotek).
# [10] = tested on: PA1 cells; experiment: Live/Dead analysis under anchorage independence (anoikis), PA1 cells; format: cell-based, human; settings: 10 nM for 24 hrs after 48 hours anchorage independence
# Protocol: as §1
molecule,measurement,setting,value
"Nc1ncn([C@@H]2O[C@H](CO)[C@@H](O)[C@H]2O)c(=O)n1 [50-Aza, 50-azacytidine]",SOX2 mRNA downregulation by BMP9,"[1]; PA1, 5 μM with 10 nM rhBMP9",suppressed
same,"SOX2 mRNA, inhibitor alone","[1]; SKOV3 cells, 5 μM",concomitant increase
same,BMP9-induced SOX2 transcriptional repression,"[1]; SKOV3 cells, 5 μM with 10 nM rhBMP9",repressed
same,BMP9-induced SOX2 promoter methylation,"[2]; PA1, 5 μM 48 h pretreatment, then rhBMP9 24 h",abrogated
same,"SOX2 promoter methylation, inhibitor alone",[2]; PA1 cells,minimal effect
same,"SOX2 promoter methylation, inhibitor alone","[2]; SKOV3 cells, 48 hours",suppressed SOX2 promoter methylation significantly
"c1cc(-c2cnn3cc(-c4ccc(OCCN5CCCCC5)cc4)cnc23)ccn1 [DM, Dorsomorphin]",recovery in SOX2 levels in the presence of BMP9,"[1]; PA1, 5 μM pretreatment 1 h, then rhBMP9 24 hours",34.3%
same,recovery in SOX2 repression by BMP2,[1],23%
CC[C@H](C)n1cc(C)c2c(C(=O)NCc3c(C)cc(C)[nH]c3=O)cc(-c3ccc(N4CCNCC4)nc3)cc21 [GSK126],SOX2 repression by BMP9,"[1]; 5 μM GSK126, multiple cell lines",abrogated
c1ccc2c(-c3cnn4cc(-c5ccc(N6CCNCC6)cc5)cnc34)ccnc2c1 [LDN193189],increase of SOX2 protein levels at baseline in the absence of exogenous ligand,"[1]; 0.8 μM LDN193189, PA1",33
same,effect on SOX2 repression by BMP9,[1],blocked
same,effect on SOX2 repression by BMP2,[1],blocked
same,BMP2- and BMP9-induced SMAD1/5 phosphorylation,"[3]; 0.8 μM LDN193189, PA1 and OVCAR3",Full inhibition
same,BMP9-induced H3K27me3 occupancy on the SOX2 promoter (ChIP),"[4]; PA1, rhBMP9 + LDN193189",significantly reduced
CC(C)C[C@@H](C=O)NC(=O)[C@H](CC(C)C)NC(=O)[C@H](CC(C)C)NC(=O)OCc1ccccc1 [MG132] (Cbz-Leu-Leu-Leu-aldehyde),effect on BMP's ability to repress SOX2,"[1]; PA1, 0.5 μM MG132 1 hour, then rhBMP2/9",No effect
COc1ccc(-c2cnc3c(-c4cccc5ncccc45)cnn3c2)cc1 [ML347],baseline SOX2 levels in the absence of exogenous ligand,"[1]; 3 μM ML347, PA1",increased
same,effect on SOX2 repression by BMP9,[1],abrogated
same,recovery in SOX2 repression by BMP2,[1],72%
same,BMP9-induced phosphorylation of SMAD1,[3]; 3 μM ML347,completely suppressed
same,suppression of BMP2-induced SMAD1 phosphorylation,[3]; 3 μM ML347,40%
NC(=O)c1ccc(-c2nc(-c3ccc4c(c3)OCO4)c(-c3ccccn3)[nH]2)cc1 [SB431542],TGF-β1-induced SOX2 increases,"[1]; 5 μM SB431542 1 h, then 400 pM TGF-β1 24 h",suppressed
same,effect on SOX2 repression by BMP9,[1],did not significantly alter
same,effect on SOX2 repression by BMP2,[1],did not alter
same,pSMAD1 in response to BMP2 and -9,[3]; 5 μM inhibitor,no effects
same,TGF-β1-induced H3K4me3 enrichment (ChIP),"[4]; PA1, TGF-β1 + SB431542",abrogated
CC(=O)O[C@H]1C(=O)[C@@]2(C)[C@H]([C@H](OC(=O)c3ccccc3)[C@]3(O)C[C@H](OC(=O)[C@H](O)[C@@H](NC(=O)c4ccccc4)c4ccccc4)C(C)=C1C3(C)C)[C@]1(OC(C)=O)CO[C@@H]1C[C@@H]2O [paclitaxel],IC50,"[5]; 24-hour pretreatment 1 nM BMP9, then combination 48 hours",90.8 nM
same,IC50,"[5]; 24-hour pretreatment 5 nM BMP9, then combination 48 hours",22.6 nM
same,IC50,"[5]; 24-hour pretreatment 10 nM BMP9, then combination 48 hours",4.1 nM
same,IC50,"[5]; 48 h, simultaneous 1 nM BMP9, 48 hours",91.7 nM
same,IC50,"[5]; 48 h, simultaneous 5 nM BMP9, 48 hours",89 nM
same,IC50,"[5]; 48 h, simultaneous 10 nM BMP9, 48 hours",73 nM
same,IC50,"[5]; 48 h, untreated control (no BMP9), simultaneous series, 48 hours",107 nM
same,IC50,"[5]; untreated control (no BMP9), 24-hour pretreatment series",113 nM
same,apoptosis in cells,[6],12.8%
same,IC50,[7]; 24-hour pretreatment 5 nM BMP9,286 nM
same,IC50,[7]; 24-hour pretreatment 10 nM BMP9,211 nM
TGF-β1: transforming growth factor β1 ligand,live/dead ratio of spheroids,[8],increased
same,SOX2 protein and mRNA expression,[1],increased
same,luciferase activity of SOX2 promoter reporter,"[9]; TGF-β1 400 pM, 24 h",increased
same,"SMAD3 occupancy at p1, p3, p4, p5, p6 (ChIP)",[4],consistent SMAD3 enrichment
same,"H3K4me3 at SMAD3 motifs p1, p3, p4, p5, p6 (ChIP)","[4]; PA1, 1-h TGF-β1",enrichment
"activin A: activin A, TGF-β family member",SOX2 protein and mRNA expression,[1],increased
same,luciferase activity of SOX2 promoter reporter,"[9]; 10 nM activin A, 24 hours",increased
same,"SMAD3 occupancy at p1, p3, p4, p5, p6 (ChIP)",[4],occupied by SMAD3
B1,decrease of live-to-dead cell ratio,[10],1.93
same,SOX2 protein and RNA levels,[1],downregulation
B2,anoikis,[10],did not alter
same,SOX2 protein and RNA levels,[1],did not alter
same,activation of SMAD1/5,[3],failed to activate
